In patent publication US12501900B2, “Heterocyclyl pyridazine as fungicidal compounds” (Bayer Aktiengesellschaft, priority 2018, dated 2025):

Key:
Septoria tritici [1] = assay: Septoria tritici in vitro cell test; type: cell-based; conditions: Zymoseptoria tritici, 168 h; 20 ppm of active ingredient; liquid culture, 7 days incubation; read-out: efficacy (inhibition of fungal growth)
Protocol: (§1) Example: Septoria tritici In Vitro Cell Test • Solvent: DMSO • Culture medium: 14.6 g anhydrous D-glucose (VWR), 7.1 g Bacteriological Peptone (Oxoid), • 1.4 g granulated Yeast Extract (Merck), QSP 1 liter • Inoculum: spore suspension Fungicides were solubilized in DMSO and the solution used to prepare the required range of concentrations. The final concentration of DMSO used in the assay was ≤1%. A spore suspension of Septoria tritici was prepared and diluted to the desired spore density. Fungicides were evaluated for their ability to inhibit spore germination and mycelium growth in liquid culture assay. The compounds were added in the desired concentration to the culture medium with spores. After 7 days incubation, fungi-toxicity of compounds was determined by spectrometric measurement of mycelium growth. Inhibition of fungal growth was determined by comparing the absorbance values in wells containing the fungicides with the absorbance in control wells without fungicides.

Alternaria brassicae = assay: In vivo preventive test on Alternaria brassicae (leaf spot on radish or cabbage); conditions: 144 h, 500 ppm of active ingredient, preventive spray on radish or cabbage, evaluated 6 days after inoculation, read-out: efficacy
Protocol: Example: In Vivo Preventive Test on Alternaria brassicae (Leaf Spot on Radish or Cabbage)
(§2) • Solvent: 5% by volume of Dimethyl sulfoxide • 10% by volume of Acetone • Emulsifier: 1 μl of Tween® 80 per mg of active ingredient
(§3) The active ingredients were made soluble and homogenized in a mixture of Dimethyl sulfoxide/Acetone//Tween®80 and then diluted in water to the desired concentration.
The young plants of radish or cabbage were treated by spraying the active ingredient prepared as described above. Control plants were treated only with an aqueous solution of Acetone/Dimethyl sulfoxide/Tween® 80.
After 24 hours, the plants were contaminated by spraying the leaves with an aqueous suspension of Alternaria brassicae spores. The contaminated radish or cabbage plants were incubated for 6 days at 20° C. and at 100% relative humidity.
The test was evaluated 6 days after the inoculation. 0% means an efficacy which corresponds to that of the control plants while an efficacy of 100% means that no disease was observed.

Alternaria alternata = Alternaria alternata in vitro cell test; type: cell-based; conditions: 120 h, 20 ppm of active ingredient, liquid culture, 5 days incubation, read-out: efficacy (inhibition of fungal growth)
Protocol: as §1, with “Example: Alternaria alternata” for “Example: Septoria tritici”, “g Mycological” for “g Bacteriological”, “(Oxoid),” for “(Oxoid), •”, “Inoculum: spores” for “Inoculum: spore”, “of A. alternata” for “of Septoria tritici”, “After 5” for “After 7”

Botrytis cinerea = assay: In vivo preventive test on Botrytis cinerea (grey mould); conditions: 500 ppm of active ingredient, preventive spray on gherkin or cabbage, evaluated 4 to 5 days after inoculation, read-out: efficacy
Protocol: Example: In Vivo Preventive Test on Botrytis cinerea (Grey Mould)
as §2, §3
The young plants of gherkin or cabbage were treated by spraying the active ingredient prepared as described above. Control plants were treated only with an aqueous solution of Acetone/Dimethyl sulfoxide/Tween® 80.
After 24 hours, the plants were contaminated by spraying the leaves with an aqueous suspension of Botrytis cinerea spores. The contaminated gherkin plants were incubated for 4 to 5 days at 17° C. and at 90% relative humidity. The contaminated cabbage plants were incubated for 4 to 5 days at 20° C. and at 100% relative humidity.
The test was evaluated 4 to 5 days after the inoculation. 0% means an efficacy which corresponds to that of the control plants while an efficacy of 100% means that no disease was observed.

[2] = Measurement of LogP values by HPLC on reversed phase columns (EEC directive 79/831 Annex V.A8), methods [a], [b], [c]; type: physicochemical; conditions: HPLC on reversed phase column, method [a]; read-out: Log P
Protocol: Measurement of Log P values as provided herein was performed according to EEC directive 79/831 Annex V.A8 by HPLC (High Performance Liquid Chromatography) on reversed phase columns with the following methods: • ^[a]
If more than one Log P value is available within the same method, all the values are given and separated by “+”.
Lambda-max-values were determined using UV-spectra from 200 nm to 400 nm and the peak values of the chromatographic signals

[3] = system: Colletotrichum lindemuthianum; assay: Colletotrichum lindemuthianum in vitro cell test; type: cell-based; conditions: 144 h, 20 ppm of active ingredient, liquid culture, 6 days incubation, read-out: efficacy (inhibition of fungal growth)
Protocol: Example: Colletotrichum lindemuthianum In Vitro Cell Test • Solvent: DMSO • Culture medium: 14.6 g anhydrous D-glucose (VWR), 7.1 g Mycological Peptone (Oxoid), 1.4 g granulated Yeast Extract (Merck), QSP 1 liter • Inoculum: spores suspension Fungicides were solubilized in DMSO and the solution used to prepare the required range of concentrations. The final concentration of DMSO used in the assay was ≤1%. A spore suspension of C. lindemuthianum was prepared and diluted to the desired spore density. Fungicides were evaluated for their ability to inhibit spores germination and mycelium growth in liquid culture assay. The compounds were added in the desired concentration to the culture medium with spores. After 6 days incubation, fungi-toxicity of compounds was determined by spectrometric measurement of mycelium growth. Inhibition of fungal growth was determined by comparing the absorbance values in wells containing the fungicides with the absorbance in control wells without fungicides.

Pyrenophora teres = assay: In vivo preventive test on Pyrenophora teres (net blotch on barley); conditions: 240 h, 500 ppm of active ingredient, preventive spray on barley, evaluated 10 days after inoculation, read-out: efficacy
Protocol: Example: In Vivo Preventive Test on Pyrenophora teres (Net Blotch on Barley)
as §2, §3
The young plants of barley were treated by spraying the active ingredient prepared as described above. Control plants were treated only with an aqueous solution of Acetone/Dimethyl sulfoxide/Tween®80.
After 24 hours, the plants were contaminated by spraying the leaves with an aqueous suspension of Pyrenophora teres spores. The contaminated barley plants were incubated for 48 hours at 20° C. and at 100% relative humidity and then for 8 days at 20° C. and at 70-80% relative humidity.
The test was evaluated 10 days after the inoculation. 0% means an efficacy which corresponds to that of the control plants while an efficacy of 100% means that no disease was observed.

Sphaerotheca fuliginea = assay: In vivo preventive test on Sphaerotheca fuliginea (powdery mildew on cucurbits); conditions: Podosphaera fuliginea, 192 h; 500 ppm of active ingredient; preventive spray on gherkin; evaluated 8 days after inoculation; read-out: efficacy
Protocol: Example: In Vivo Preventive Test on Sphaerotheca fuliginea (Powdery Mildew on Cucurbits)
as §2, §3
The young plants of gherkin were treated by spraying the active ingredient prepared as described above. Control plants were treated only with an aqueous solution of Acetone/Dimethyl sulfoxide/Tween® 80.
After 24 hours, the plants were contaminated by spraying the leaves with an aqueous suspension of Sphaerotheca fuliginea spores. The contaminated gherkin plants were incubated for 8 days at 20° C. and at 70-80% relative humidity.
The test was evaluated 8 days after the inoculation. 0% means an efficacy which corresponds to that of the control plants while an efficacy of 100% means that no disease was observed.

[4] = system: Colletotrichum lindemuthianum; assay: In vivo preventive test on Colletotrichum lindemuthianum (leaf spot on bean); conditions: 168 h, 500 ppm of active ingredient, preventive spray on bean, evaluated 7 days after inoculation, read-out: efficacy
Protocol: Example: In Vivo Preventive Test on Colletotrichum lindemuthianum (Leaf Spot on Bean)
as §2, §3
The young plants of bean were treated by spraying the active ingredient prepared as described above. Control plants were treated only with an aqueous solution of Acetone/Dimethyl sulfoxide/Tween® 80.
After 24 hours, the plants were contaminated by spraying the leaves with an aqueous suspension of Colletotrichum lindemuthianum spores. The contaminated bean plants were incubated for 24 hours at 20° C. and at 100% relative humidity and then for 6 days at 20° C. and at 90% relative humidity.
The test was evaluated 7 days after the inoculation. 0% means an efficacy which corresponds to that of the control plants while an efficacy of 100% means that no disease was observed.

Septoria tritici [5] = assay: In vivo preventive test on Septoria tritici (leaf spot on wheat); conditions: Zymoseptoria tritici, in Triticum aestivum; 500 ppm of active ingredient; preventive spray on wheat; evaluated 19 days after inoculation; read-out: efficacy
Protocol: Example: In Vivo Preventive Test on Septoria tritici (Leaf Spot on Wheat)
as §2, §3
The young plants of wheat were treated by spraying the active ingredient prepared as described above. Control plants were treated only with an aqueous solution of Acetone/Dimethyl sulfoxide/Tween®80.
After 24 hours, the plants were contaminated by spraying the leaves with an aqueous suspension of Septoria tritici spores. The contaminated wheat plants were incubated for 72 hours at 17° C. and at 100% relative humidity and then for 15 days at 20° C. and at 90% relative humidity.
The test was evaluated 19 days after the inoculation. 0% means an efficacy which corresponds to that of the control plants while an efficacy of 100% means that no disease was observed.

SMILES	inhibition at 20 ppm (Septoria tritici [1]) [%]	pest or weed control at 500 ppm (Alternaria brassicae) [%]	inhibition at 20 ppm (Alternaria alternata) [%]	pest or weed control at 500 ppm (Botrytis cinerea) [%]	chromatographic logP [2]	inhibition at 20 ppm [3] [%]	pest or weed control at 500 ppm (Pyrenophora teres) [%]	pest or weed control at 500 ppm (Sphaerotheca fuliginea) [%]	pest or weed control at 500 ppm [4] [%]	pest or weed control at 500 ppm (Septoria tritici [5]) [%]
FC(F)(F)c1cccc(Oc2nnc(Cl)cc2C2=NCC(Cc3ccc(Cl)cc3Cl)N2)c1 (racemic) [I-007, 6-chloro-4-[rac-5-[(2,4-dichlorophenyl)methyl]-4,5-dihydro-1H-imidazol-2-yl]-3-[3-(trifluoromethyl)phenoxy]pyridazine]	90 to 100	90 to 100	90 to 100	90 to 100	2.39	90 to 100				
FC(F)(F)c1cccc(Oc2nnc(Cl)cc2C2=NOC[C@H](Cc3ccccc3)N2)c1 (single isomer, unassigned) [I-070]	80 to 89	90 to 100	90 to 100	90 to 100	3.81	90 to 100	90 to 100	90 to 100	90 to 100	
Cc1ccc(CC2CON=C(c3cc(Cl)nnc3Oc3cccc(C(F)(F)F)c3)N2)c(C)c1 (racemic) [I-059, rac-3-[6-chloro-3-[3-(trifluoromethyl)phenoxy]pyridazin-4-yl]-5-[(2,4-dimethylphenyl)methyl]-5,6-dihydro-4H-1,2,4-oxadiazine]	90 to 100	90 to 100	90 to 100	90 to 100		90 to 100	90 to 100	90 to 100	90 to 100	90 to 100
CC(=O)c1cc(C2=NOCC(Cc3ccc(C)cc3C)N2)c(Oc2cccc(C(F)(F)F)c2)nn1 (racemic) [I-042, 1-[5-[rac-5-[(2,4-dimethylphenyl)methyl]-5,6-dihydro-4H-1,2,4-oxadiazin-3-yl]-6-[3-(trifluoromethyl)phenoxy]pyridazin-3-yl]ethanone]		90 to 100	90 to 100	90 to 100	4.27	90 to 100	90 to 100	90 to 100	90 to 100	90 to 100
Cc1ccc(CC2CON=C(c3c(Oc4cccc(C(F)(F)F)c4)nnc(Cl)c3-c3ccncc3)N2)c(C)c1 (racemic) [I-088, rac-3-[6-chloro-5-(4-pyridyl)-3-[3-(trifluoro-methyl)phenoxy]pyridazin-4-yl]-5-[(2,4-dimethylphenyl)methyl]-5,6-dihydro-4H-1,2,4-oxadiazine]		90 to 100	90 to 100	90 to 100	3.76	90 to 100	90 to 100	90 to 100	90 to 100	70 to 79
Cc1cc(C2=NOCC(c3cn(C)c4ccccc34)N2)c(Oc2cccc(C(F)(F)F)c2)nn1 (racemic) [I-011, rac-5-(1-methylindol-3-yl)-3-[6-methyl-3-[3-(trifluoro-methyl)phenoxy]pyridazin-4-yl]-5,6-dihydro-4H-1,2,4-oxadiazine]	90 to 100	90 to 100	90 to 100	90 to 100	3.23	90 to 100	70 to 79	90 to 100	80 to 89	
COc1ccc(C2NC(c3cc(C)nnc3Oc3cccc(C(F)(F)F)c3)=NOC2(F)F)cc1 (racemic) [I-154, rac-6,6-difluoro-5-(4-methoxyphenyl)-3-[6-methyl-3-[3-(trifluoromethyl)phenoxy]pyridazin-4-yl]-4,5-dihydro-1,2,4-oxadiazine]		90 to 100	90 to 100	90 to 100	3.6	90 to 100	90 to 100	90 to 100	90 to 100	
